The text below walks through data of US20160009769A1, “PROCESSES FOR ISOLATING SALICYCLIC ACID RECEPTORS” (NEOPRO LABS, LLC, priority 2013, published 2016).

For assay [1], the system named is SARP. Nature of the assay: Dynamic light scattering (DLS) of SARP micelles/gel in water. Particulars: for micelle size after 20 min: 20 min after addition to 0.1 pM SARP in water; for micelle size upon addition: added to 0.1 pM SARP in water. The format is biochemical, Sauromatum. How it is done: Organized droplets are seen under the light microscope when SARP solution is spread on a glass slide. Upon addition of DTT or mercaptoethanol the micelle size reduces to ˜300 nm, and after 20 min, the size increases back to ˜800 nm. […] The swelling and shrinking were discontinuous. Addition of 10 μM ATP stops the oscillation for ˜30 min. and then it is resumed at the same kinetics.
FIG. 11. SARP was purified from D-day appendices using RP-HPLC-ESI-MS. Purified SARP was solubilized in distilled water and analyzed using DLS. […] T, period.
Upon addition of water to the dry protein at a final concentration of 0.1 pM, micelles formed with a uniform size of ˜800 nm (FIG. 5). Upon addition of DTT or β-mercaptoethanol the micelle size reduced to ˜300 nm, and after 20 min, the size increased back to ˜800 nm. […] Addition of 10 μM ATP stopped the oscillation for ˜30 min. and then it resumed with the same kinetics.

Assay [2] deals with SARP. Briefly: Reduction of tetrazolium salts by SARP in the presence of pyridine. The format is biochemical. Conditions: tetrazolium salt 4 μM, pyridine 30%, 5 min at room temperature; mean of two determinations. The source says: Additionally and as described herein, SARPs are capable of unidirectionally transferring one or two electrons to an electron acceptor such as 3-(4,5-dimethyl thiazol-2-yl-(2,5-diphenyl) tetrazolium bromide (MTT), nitro blue tetrazolium (NBT) or neotetrazolium chloride (Neo-NBT), or to ferricytochrome c.

In assay [3] the test system is SARP. Nature of the assay: Effect of SA on the levels of SARP in the Sauromatum appendix. The arrangement: species or system Sauromatum guttatum. Particulars: D-1 appendix placed in 10 μM SA, protein extracted next morning; control in water 160. How it is done: In certain embodiments SARP is isolated using organic solutions. Tissues are ground n a juicer grinder in an organic extraction solution containing 50% IP, 2 mM β-mercaptoethanol, 0.5 mM EDTA, 5 mM butylated hydroxy-toluene, 0.1% tocopherol acetate, 0.1% polyvinylpoly-pyrrolidone (insoluble, Sigma-Aldrich Corp.) in 40 mM imidazole/HCl buffer, pH 7.0, at a weight/volume ratio of 1 g of tissue per 5 ml of extraction solution. The extract is centrifuged at 15,000 g for 10 min and the pellet is discarded. A strong cationic resin (DOWEX X-50, Sigma-Aldrich Corp.) is added to the supernatant (30 mg resin per ml) and stirred for 2.5 h at 4° C. The mixture is then centrifuged at 30 g for 2 min, and the supernatant is discard. The Dowex resin is washed several times, first with the extraction solution and finally with distilled water until a clear wash is obtained. Subsequently, the resin is again washed 2 times with 0.15 M phosphate buffer, pH 7.0. […] The protein solution is dialyzed using a 12-14 kDa cut-off dialysis bag against 3 L of distilled water at 4° C., the water is changed twice during 24 h. The content of the dialysis bag is removed and centrifuged at 10,000 g for 15 min. The pellet is used for SARP purification.
In certain embodiments SARP is purified using a reversed-phase high-performance liquid chromatography (RP-HPLC) on-line to elecrosray ionization-mass spectromer (ESI-MS). […]

The subject of assay [4] is SARP. Nature of the assay: ESI-MS charge state distribution (conformation) of SARP from Sauromatum appendix after treatment with salicylates. The arrangement: species or system Sauromatum guttatum. The source says:
It is an aspect of the present invention to provide a method of detection and characterization of SARP using RP-HPLC/ESI-MS. This is accomplished using on-line splitting of 5 to 10% of the effluent from the UV detector to a Micromass Quattro II tandem quadrupole MS fitted with an ESI source (Waters Inc.) via a variable splitter allowing manual fraction collection. This instrument is operated in a positive ESI mode at a probe tip voltage of 3.6 kV and a cone voltage of 45 V. The source and nebulizer temperatures are maintained at 150 and 400° C., respectively, using N2 as both nebulizing and bath gas. The instrument is calibrated using water clusters over the range of 100-2400 Da with data acquisition is carried out from m/z 500 to 2000 in the continuum-scanning mode at 450 Da sec^1. Instrument tuning, mass calibration, data acquisition, processing and display are accomplished using MassLynx™ and MaxEnt™ software (Waters Inc.). This procedure provided a protein molecular mass with an accuracy of ˜0.1%.
FIG. 13. […] The ESI-MS spectra is different that that of ASA and SA. It is more expanded, lower m/z values.
Monomeric SARP undergoes a large-scale conformation transition from one state to another in the Sauromatum appendix during development. […] The concentration of SA in the appendix tissue is ˜1 μg/g fresh wt^4, and it is equivalent to ˜7 μM, within the range of this experiment.

A further assay concerns Human SARP. Briefly: ESI-MS conformation of SARP purified from SK-N-SH cells treated with SA. The format is cell-based. Particulars: SK-N-SH cells treated with 10 μM. The source says:
The charge state distribution (CSD) of the human SARP is identical to its plant counterpart from the Sauromatum appendix during heat-production. […] This regulatory activity behaves as a metabolic switch that switching on and off heat-production. SARP can be a metabolic switch in the cytoplasm and mitochondria. […] However, if SA level fluctuates, SARP can be either in state B (compact) or state A (extanded) and consequently, can trigger oscillatory thermogenicity. In a more complex model, the cytoplasmic and the mitochondrial switch will have to be to be in state B. There are four possibilities for the output for both switches. When both switches are in states B, a singular event of heat-production occurs. Other options are cytoplasmic SARP in state A and mitochondrial SARP in either state A or B. Or, cytoplasmic SARP in state B and mitochondrial SARP in state A.
FIG. 16. Purification of SARP from SK-N-SH cells using perfusion chromatography. SARP was purified using RP-HPLC/ESI-MS. TIC chromatogram with solvent gradient overlay (A). Ion current chromatograms of m/z 1139 (B) and 1178, (C) corresponding to [M+30H]^30+ and […] charge states of the protein. Solvent A is 0.05% TFA in aqueous solution and solvent B is 0.05% aqueous TFA in ACN:IP at a ratio 2:1.
FIG. 17. Electrospray ionization mass spectrua of SARP from the SK-N-SH cells and Sauromatum appendix. […]

The test system of assay [5] is SARP. Briefly: UV spectra of SARP in the presence of ligands. The format is biochemical. Conditions: 1 pM SARP. How it is done:
FIG. 14. UV spectra of SAR in the presence of 2,6-DHBA. Freshly dissolved SAR was incubated with 2,6-DHBA and samples were taken for spectral analysis at the same time when the effect of SA on SAR was determined. The data present acquired spectra after baseline subtraction of each compound added to SAR. Every 3 min. after the addition of SAR a spectrum was recorded. A, The first 6 spectra were downward relative to the baseline (solid line). The following spectra were upward (broken line). (ME, β-mercaptoethanol).
FIG. 15. UV spectra of SAR in the presence of GTP, SA, and ATP. Freshly dissolved SARP was incubated with GTP and samples were taken for spectral analysis. Later, ME and SA were added to the sample, and finally ATP was added to the sample. The data present acquired spectra after baseline subtraction of each compound added to SARP. […] (ME, β-mercaptoethanol).
Thus, according to certain related embodiments, UV absorbance spectra of SARP may fluctuate over time when absorbance measurements are collected over a range of wavelengths and at a plurality of time points, if a salicylate-related compound is present or, under other chemical environments as described below. […] In certain preferred embodiments the change may be detected at wavelengths from (inclusively) 190 nm to 280 nm, where it will be appreciated that selection of a suitable wavelength may vary as a function of several factors including protein concentration, solution composition (e.g., absorbance properties of buffers, salts, etc.), instrument sensitivity, and other related attributes of a spectroscopic configuration.

A further assay relates to Sauromatum appendix. Conditions: cited from earlier work; for triggering of heat production: S. guttatum.
[6] abbreviates: higher concentrations, 100 and 200 μM.

For `Nc1ncnc2c1ncn2[C@@H]1O[C@H](COP(=O)(O)OP(=O)(O)OP(=O)(O)O)[C@@H](O)[C@H]1O` [ATP], the “time the oscillation is stopped” value in the assay with SARP [1] (10 μM added to oscillating SARP gel) is listed as roughly 30 min.
Regarding `COc1cc(-c2ccc(-n3nc(-c4ccccc4)n[n+]3-c3ccc([N+](=O)[O-])cc3)c(OC)c2)ccc1-n1nc(-c2ccccc2)n[n+]1-c1ccc([N+](=O)[O-])cc1` [NBT, nitro blue tetrazolium], the O.D.530 with SARP [2] is on record as 0.14.
For the compound `OCCS` [β-mercaptoethanol], in the assay on SARP [1], the “micelle size after 20 min” value is on record as roughly 800 nm and the “micelle size upon addition” value is reported as roughly 300 nm.
For the compound `O=C(O)c1ccccc1O` [SA, salicylic acid], the “SARP (ng/g fresh wt.)” value in the assay with SARP [3] is 30 ng/g fresh wt. Moreover, the results for the “conformational state of SARP” value in the assay on SARP [4] (10 μM applied to pre D-day appendices) and in the assay with SARP [4] (setting [6]) were “induced a transition from state A in which SA undetectable in the tissue to state B” and “conformations that are more extended than state A”, respectively. Also, the “conformation of human SARP” value with Human SARP is recorded as “a shift to a much more compact conformation”. Further, the “effect on micelle size” value with SARP [1] (1 pM, molar ratio [SARP]/[SA]<0.1) was “immediately decreased the micelle size”. Besides, the “period of gel expansion/shrinking oscillation” value with SARP [1] (after addition of 1 pM SA) fell in the range of 4 to 5 min. Further, the “effect on UV spectrum of SARP” value with SARP [5] (incubation of SA and GTP and ATP) is “appearance of new bands from 197 to 230”; with SARP [5] (incubation with NADH) it was “a shift in a band from 197 to 230”. Besides, the “temperature rise of appendix section” value in the assay with Sauromatum appendix (added on D-1 morning, the next morning, untreated section stays at ambient temperature) is “up to 32 °C”.
On to `Cc1nc(-[n+]2nc(-c3ccccc3)nn2-c2ccccc2)sc1C.[Br-]` [MTT], for which, in the assay with SARP [2], the O.D.530 is on record as 0.17.
With `CC(=O)Oc1ccccc1C(=O)O` [ASA, aspirin], the “triggering of heat production” value in the assay on Sauromatum appendix was “can also trigger heat production”.
As for `O=C(O)c1c(O)cccc1O` [2,6-DHBA, 2,6-dihydroxybenzoic acid], in the assay with SARP [4] (D-2 and D-3 appendix sections incubated overnight in 100 μM), the “ESI-MS spectra of SARP compared with ASA and SA” value is recorded as “more expanded”. For the same compound, in the assay with SARP [4] (setting [6]), the “conformational state of SARP” value is recorded as “conformations that are more extended than state A”. Further, in the assay with SARP [5] (incubation with NADH), the “effect on UV spectrum of SARP” value is listed as “did not exert the same effect”. Also, in the assay with Sauromatum appendix, the “triggering of heat production” value was “can also trigger heat production”.
Turning to `O=C(O)c1ccc(O)c(O)c1` [3,4-DHBA, 3,4-dihydroxybenzoic acid], the “effect on UV spectrum of SARP” value in the assay on SARP [5] (incubation with NADH) is on record as “did not exert the same effect”.
With `c1ccc(-c2nn(-c3ccccc3)[n+](-c3ccc(-c4ccc(-[n+]5nc(-c6ccccc6)nn5-c5ccccc5)cc4)cc3)n2)cc1` [NeoT, neotetrazolium chloride], the O.D.530 with SARP [2] came out at 0.06.
For the compound `O[C@H](CS)[C@H](O)CS` (racemic) [DTT, dithiothreitol], in the assay with SARP [1], the “micelle size after 20 min” value is roughly 800 nm and the “micelle size upon addition” value is on record as roughly 300 nm.
